# Read-outs that look alike come from different tables or passages of the source.
# Key:
# OM-1 (colon) = assay: Radiometric growth inhibition of tumor cells, OM-1; assay type: cell-based, human; design: % SURVIVAL TUMOR: concentration or dose not given beside the values; conditions: for IC50: concentration required to kill 50%
# From the text: (§1) CELL LINES: Eight different established human cell lines CALU (lung), COLO320 (colon), H578St (breast), HT-29 (colon), MCF-7 (breast), OM-1 (colon), SKLU (lung) and SKMES(lung), and two control cell lines (bone marrow and/or fibroblast cells) were utilized. All cell lines were obtained from the Tumor Cloning Laboratory, Institute for Drug Development, Cancer Therapy and Research Center, San Antonio, Tex. All cell lines grew as monolayers in the appropriate culture medium supplemented with heat-inactivated calf serum. All reagents were obtained from Grand Island Biological Co., Grand Island, N.Y.
# (§2) The iv formulations of the compounds of the present invention were prepared with sterile buffered saline and stored at -70° C. until required for testing.
# (§3) Following trypsinization, tumor cells were suspended in tissue culture medium and exposed to the antitumor agents continuously at three different concentrations: 10, 1 and 0.1 μg/ml.
# (§4) RADIOMETRIC MEASUREMENT OF GROWTH INHIBITION: Growth inhibition was assessed with the BACTEC System 460 (Johnston Laboratories, Towson, Md.) after addition of the antitumor agent to the cell in the respective growth medium containing ^14 C-glucose at a final concentration of 2 μCi/ml.
# (§5) Two mls of the tumor cell suspension containing radioactive glucose were seeded into sterile, disposable 15 ml vials by injection through self-sealing rubber-aluminum caps. […] The seeded vials were then incubated at 37° C. Measurement of the release of ^14 CO2 resulting from the metabolism of ^14 C-glucose were performed on days 6, 9, 12 and 15 in the BACTEC instrument. This instrument flushes the ^14 CO2 containing air out of the vials into an ionization chamber that converts dpm to growth index values. […] Each data point represents triplicate values.
# (§6) All compounds were dosed on an equimilimolar basis.
# SKLU (lung) = assay: Radiometric growth inhibition of tumor cells, SKLU; assay type: cell-based, human; design: % SURVIVAL TUMOR: concentration or dose not given beside the values; conditions: for IC50: concentration required to kill 50%
# From the text: as §1, §2, §3, §4, §5, §6
# MCF-7 (breast) = assay: Radiometric growth inhibition of tumor cells, MCF-7; assay type: cell-based, human; design: % SURVIVAL TUMOR: concentration or dose not given beside the values; conditions: MCF-7; for IC50: concentration required to kill 50%; for % SURVIVAL TUMOR: continuous exposure
# From the text: as §1, §2, §3, §4, §5, §6
# HT29 (colon) = assay: Radiometric growth inhibition of tumor cells, HT29; assay type: cell-based, human; design: % SURVIVAL TUMOR: concentration or dose not given beside the values; conditions: for IC50: concentration required to kill 50%
# From the text: as §1, §2, §3, §4, §5, §6
# [1] = In vitro survival of bone marrow control cells (radiometric BACTEC); assay type: cell-based; design: concentration or dose not given beside the values
# From the text: as §1, §2, §3, §4, §5, §6
# CALU (lung) = assay: Radiometric growth inhibition of tumor cells, CALU; assay type: cell-based, human; design: % SURVIVAL TUMOR: concentration or dose not given beside the values; conditions: for IC50: Homo sapiens, concentration required to kill 50%, read-out: IC 50
# From the text: as §1, §2, §3, §4, §5, §6
# COLO320 (colon) = assay: Radiometric growth inhibition of tumor cells, COLO320; assay type: cell-based, human; conditions: for IC50: Homo sapiens, COLO 320, COLO320, concentration required to kill 50%, read-out: IC 50; for % SURVIVAL TUMOR: human, colo320 colon tumor cells
# From the text: as §1, §2, §3, §4, §5, §6
# [2] = Homo sapiens, HT-29, HT29, read-out: IC 50
# [3] = bone marrow control cells, continuous exposure, read-out: % SURVIVAL BONE MARROW
# [4] = Homo sapiens, OM-1, read-out: IC 50
# [5] = Homo sapiens, SKLU, read-out: IC 50
# [6] = Homo sapiens, MCF7, read-out: IC 50
molecule,measurement,setting,value
2'-Deoxy-β-L-5-fluorouridine,IC50,OM-1 (colon); OM-1,62.9
same,IC50,SKLU (lung); SKLU,32.5
same,IC50,MCF-7 (breast),16.6
same,IC50,HT29 (colon); HT29,85.2
"O=C(OC[C@@H]1O[C@@H](n2ccc(=S)[nH]c2=O)[C@@H](OC(=O)c2ccccc2)[C@H]1OC(=O)c1ccccc1)c1ccccc1 [1-(2,3,5-Tri-O-benzoyl-α-L-ribofuranosyl)-4-thiouracil]",% SURVIVAL TUMOR,"HT29 (colon); HT29, continuous exposure",75%
same,IC50,HT29 (colon); [2],> 10 µg/mL
same,viability,[1]; [3],85.9%
"O=c1ccn([C@@H]2CC[C@H](CO)O2)c(=O)[nH]1 [2',3'-β-L-dideoxy ribofuranosyl uracil, 2',3'-Dideoxy-β-L-uridine]",% SURVIVAL TUMOR,"CALU (lung); CALU, continuous exposure",0.4%
same,IC50,CALU (lung); CALU,0.623 µg/mL
same,viability,[1]; bone marrow cells,79.8%
O=c1[nH]c(=O)n([C@@H]2C[C@@H](O)[C@H](CO)O2)cc1F [2'-Deoxy-β-L-5-fluorouridine],IC50,COLO320 (colon),6.56 µg/mL
same,% SURVIVAL TUMOR,COLO320 (colon),19.6%
same,IC50,OM-1 (colon); [4],56.1 µg/mL
same,% SURVIVAL TUMOR,"OM-1 (colon); human, om-1 colon tumor cells",85.2%
same,IC50,SKLU (lung); [5],59.9 µg/mL
same,% SURVIVAL TUMOR,"SKLU (lung); human, sklu lung tumor cells",86.2%
same,IC50,MCF-7 (breast); [6],60.7 µg/mL
same,% SURVIVAL TUMOR,MCF-7 (breast),86.9%
same,% SURVIVAL TUMOR,"HT29 (colon); HT29, continuous exposure",42.5%
same,IC50,HT29 (colon); [2],8.46 µg/mL
same,viability,[1]; bone marrow cells,109%
Nc1ncnc2c1ncn2[C@@H]1C[C@@H](O)[C@H](CO)O1 [2'-β-L-deoxy ribofuranosyl adenine],IC50,CALU (lung); CALU,0.696 µg/mL
same,% SURVIVAL TUMOR,"CALU (lung); human, calu lung tumor cells",28.9%
same,viability,[1]; bone marrow cells,64.9%
"O=c1[nH]cnc2c1ncn2[C@@H]1C[C@@H](O)[C@H](CO)O1 [2'-β-L-deoxy ribofuranosyl hypoxanthine, 2'-Deoxy-β-L-inosine]",IC50,OM-1 (colon); [4],> 10 µg/mL
same,% SURVIVAL TUMOR,"OM-1 (colon); human, om-1 colon tumor cells",83.1%
same,viability,[1]; bone marrow cells,110%
"Cc1cn([C@@H]2C[C@@H](O)[C@H](CO)O2)c(=O)[nH]c1=O [2'-β-L-deoxy ribofuranosyl thymine, 2'-Deoxy-β-L-thymidine]",IC50,COLO320 (colon),57.4 µg/mL
same,% SURVIVAL TUMOR,COLO320 (colon),67.0%
same,IC50,OM-1 (colon); [4],6.5 µg/mL
same,% SURVIVAL TUMOR,"OM-1 (colon); human, om-1 colon tumor cells",37.6%
same,IC50,SKLU (lung); [5],38.2 µg/mL
same,% SURVIVAL TUMOR,"SKLU (lung); human, sklu lung tumor cells",72.4%
same,IC50,HT29 (colon); [2],30.4 µg/mL
same,% SURVIVAL TUMOR,"HT29 (colon); human, ht29 colon tumor cells",72.2%
same,viability,[1]; bone marrow cells,159%
"O=c1[nH]c(=S)ccn1[C@@H]1C[C@@H](O)[C@H](CO)O1 [2'-β-L-deoxy ribofuranosyl-4-thiouracil, 2'-Deoxy-β-L-4-thiouridine]",IC50,OM-1 (colon); [4],34.3 µg/mL
same,% SURVIVAL TUMOR,"OM-1 (colon); OM-1, continuous exposure",82.3%
same,IC50,SKLU (lung); [5],> 10 µg/mL
same,% SURVIVAL TUMOR,"SKLU (lung); SKLU, continuous exposure",79.4%
same,viability,[1]; [3],98.2%
"NC1=N[C@@H]2O[C@@H](CO)[C@H](O)[C@@H]2O1 [2-Amino-α-L-ribofurano[1',2':4,5]oxazoline]",IC50,OM-1 (colon); [4],0.026 µg/mL
same,% SURVIVAL TUMOR,"OM-1 (colon); OM-1, continuous exposure",2.6%
same,viability,[1]; [3],115%
"NC1=N[C@H]2O[C@@H](CO)[C@H](O)[C@H]2O1 [2-Amino-β-L-arabinofurano[1',2':4,5]oxazoline]",IC50,OM-1 (colon); [4],5 µg/mL
same,% SURVIVAL TUMOR,"OM-1 (colon); OM-1, continuous exposure",41.3%
same,IC50,MCF-7 (breast); [6],187 µg/mL
same,% SURVIVAL TUMOR,MCF-7 (breast),88.8%
same,% SURVIVAL TUMOR,"CALU (lung); CALU, continuous exposure",89%
same,IC50,CALU (lung); CALU,44.6 µg/mL
same,viability,[1]; [3],110%
"O=C(OC[C@@H]1O[C@H](n2ccc(=S)[nH]c2=O)C[C@H]1OC(=O)c1ccccc1)c1ccccc1 [3',5'-Di-O-benzoyl-2'deoxy-4-thio β-L-uridine]",IC50,OM-1 (colon); [4],0.98 µg/mL
same,% SURVIVAL TUMOR,"OM-1 (colon); OM-1, continuous exposure",35.7%
same,IC50,SKLU (lung); [5],88.7 µg/mL
same,% SURVIVAL TUMOR,"SKLU (lung); SKLU, continuous exposure",77.7%
same,IC50,MCF-7 (breast); [6],> 10 µg/mL
same,% SURVIVAL TUMOR,MCF-7 (breast),84.5%
same,viability,[1]; [3],102%
